{"source": "patent US20260216182A1", "about": "“PYRIDAZINE NLRP3 INHIBITOR COMPOUND, PHARMACEUTICAL COMPOSITION, AND PREPARATION METHOD THEREFOR AND USE THEREOF” (CHANGCHUN GENESCIENCE PHARMACEUTICAL CO., LTD., priority 2022, published 2026)", "tested_on": "mouse NASH model", "assay": "Mouse NASH model test (HFD + fructose), combination with semaglutide", "assay_type": "in vivo, mice", "conditions": "low/high dose semaglutide alone", "method": "Test Example 6 Mouse NASH Model Test\nAfter the animals arrived and acclimatized for 1 week, they were randomly divided into 2 groups. 48 mice were fed a high-fat diet (HFD) and had free access to 15% fructose water (w/w). After the animals were fed for 20 weeks, they were fasted for 6 h, and fasting blood glucose (FBG) was monitored by a blood glucose meter. Orbital blood was taken from all animals, and serum was collected by centrifugation to detect serum ALT levels. Animals were randomly divided into 6 groups according to their body weight, FBG and ALT levels. After that, the high fat feed (HFD) was replaced with the modified high fat feed (mHFD), and the mice had free access to 15% fructose water (v/w). The 8 mice in the other group were fed normal diet and water.\nThe first end point of the experiment: After 8 weeks of administration, the end point body weight was recorded and the animals were fasted for 6 h, and fasting blood glucose was measured with a blood glucose meter. The mice were then euthanized by CO2 and serum was collected by orbital blood sampling and stored at −80° C. for insulin and biochemical analysis. The animal's liver was taken and the liver weight was recorded. The liver was divided into four parts, one part was quick-frozen in liquid nitrogen for biochemical analysis, one part was placed in tissue fixative for pathological analysis, one part was stored in RNAlater for qPCR detection (backup for later use), and one part was quick-frozen in liquid nitrogen for possible subsequent detection.\nThe second end point of the experiment: 3 mice were kept in each group for 6 weeks for further observation. The end point body weight was recorded and the mice were fasted for 6 h. Fasting blood glucose was tested with a blood glucose meter. The mice were then euthanized by CO2 and serum was collected by orbital blood sampling and stored at −80° C. for insulin and biochemical analysis. The animal's liver was taken and the liver weight was recorded. The liver was divided into four parts, one part was quick-frozen in liquid nitrogen for biochemical analysis, one part was placed in tissue fixative for pathological analysis, one part was stored in RNAlater for qPCR detection (backup for later use), and one part was quick-frozen in liquid nitrogen for subsequent detection."}
{"substance": "semaglutide [reference compound]", "values": [{"measurement": "rebound of body weight after drug withdrawal", "value": "neither the control compound combined with semaglutide nor the groups of low/high dose semaglutide alone inhibited the rebound of body weight"}]}
